# Measurements: PubChem BioAssay (NCI)
#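 Assay format: 96-well plates, 48-hour exposure. At the TGI there is no net growth.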
# Assays:
# Assay in all cases: NCI anticancer screen, dose series, 48 h
# [1] = system: SK-OV-3 ovarian
# [2] = system: DMS 114 small cell lung
# [3] = system: NCI-H460 lung
# [4] = system: TK-10 renal
# [5] = system: HOP-92 NSCLC
# [6] = system: SNB-75 CNS
# [7] = system: HCT-116 colon
# [8] = system: KM12 colon
# [9] = system: COLO 205 colon
# [10] = system: NCI-H522 lung
# [11] = system: HOP-62 NSCLC
# [12] = system: HT29 colon
# [13] = system: HCC-2998 colon
# [14] = system: A549 NSCLC
# [15] = system: RPMI-8226 leukemia
# [16] = system: ACHN renal
# [17] = system: NCI-H226 lung
# [18] = system: DMS 273 small cell lung
# [19] = system: NCI-H23 lung
# [20] = system: SNB-19 CNS
# [21] = system: RXF-631 renal
# [22] = system: LOX IMVI melanoma
# [23] = system: SF-295 CNS
# [24] = system: CAKI-1 renal
# [25] = system: SK-MEL-28 melanoma
# [26] = system: KM20L2 colon
# [27] = system: K-562 leukemia
# [28] = system: IGROV1 ovarian
# [29] = system: XF 498 CNS
# [30] = system: HOP-18 NSCLC
# [31] = system: UO-31 renal
# [32] = system: OVCAR-3 ovarian
# [33] = system: U251 CNS
# [34] = system: M14 melanoma
# [35] = system: SF-268 CNS
# [36] = system: LXFL 529 NSCLC
# [37] = system: OVCAR-5 ovarian
# [38] = system: MALME-3M melanoma
# [39] = system: RXF 393 renal
# [40] = system: OVCAR-8 ovarian
# [41] = system: OVCAR-4 ovarian
# [42] = system: EKVX NSCLC
# [43] = system: SF-539 CNS
# [44] = system: SNB-78 CNS
# [45] = system: UACC-257 melanoma
# [46] = system: 786-0 renal
# [47] = system: CCRF-CEM leukemia
# [48] = system: SK-MEL-5 melanoma
# [49] = system: A498 renal
# [50] = system: SN12C renal
# [51] = system: UACC-62 melanoma
# [52] = system: M19-MEL melanoma
# [53] = system: HL-60(TB) leukemia
# [54] = system: DLD-1 colon
# [55] = system: SW-620 colon
# [56] = system: SR leukemia
# [57] = system: MOLT-4 leukemia
compound,measurement,setting,value
COc1cc2c3c(c1OC)/C(=N/OS(=O)(=O)c1ccc(C)cc1)CC3N(S(=O)(=O)c1ccc(C)cc1)CC2 (centres undefined),TGI,[1],> 100 µM
same,TGI,[2],> 100 µM
same,TGI,[3],> 100 µM
same,TGI,[4],> 100 µM
same,TGI,[5],> 100 µM
same,TGI,[6],> 100 µM
same,TGI,[7],> 100 µM
same,TGI,[8],> 100 µM
same,TGI,[9],> 100 µM
same,TGI,[10],> 100 µM
same,TGI,[11],> 100 µM
same,TGI,[12],> 100 µM
same,TGI,[13],> 100 µM
same,TGI,[14],> 100 µM
same,TGI,[15],> 100 µM
same,TGI,[16],> 100 µM
same,TGI,[17],> 100 µM
same,TGI,[18],> 100 µM
same,TGI,[19],> 100 µM
same,TGI,[20],> 100 µM
same,TGI,[21],> 100 µM
same,TGI,[22],> 100 µM
same,TGI,[23],> 100 µM
same,TGI,[24],> 100 µM
same,TGI,[25],> 100 µM
same,TGI,[26],> 100 µM
same,TGI,[27],> 100 µM
same,TGI,[28],> 100 µM
same,TGI,[29],> 100 µM
same,TGI,[30],> 100 µM
same,TGI,[31],> 100 µM
same,TGI,[32],> 100 µM
same,TGI,[33],> 100 µM
same,TGI,[34],> 100 µM
same,TGI,[35],> 100 µM
same,TGI,[36],> 100 µM
same,TGI,[37],> 100 µM
same,TGI,[38],> 100 µM
same,TGI,[39],> 100 µM
same,TGI,[40],> 100 µM
same,TGI,[41],> 100 µM
same,TGI,[42],> 100 µM
same,TGI,[43],> 100 µM
same,TGI,[44],> 100 µM
same,TGI,[45],> 100 µM
same,TGI,[46],> 100 µM
same,TGI,[47],> 100 µM
same,TGI,[48],> 100 µM
same,TGI,[49],> 100 µM
same,TGI,[50],> 100 µM
same,TGI,[51],> 100 µM
same,TGI,[52],> 100 µM
same,TGI,[53],> 100 µM
same,TGI,[54],> 100 µM
same,TGI,[55],> 100 µM
COc1ccc2[nH]c3c(C)c4cc[n+](COC(=O)c5ccccc5)cc4c(C)c3c2c1,TGI,[1],5.78 µM
same,TGI,[4],4.4 µM
same,TGI,[56],0.213 µM
same,TGI,[11],24 µM
same,TGI,[15],1.7 µM
same,TGI,[16],5.97 µM
same,TGI,[20],6.85 µM
same,TGI,[23],1.65 µM
same,TGI,[24],> 100 µM
same,TGI,[27],1.46 µM
same,TGI,[29],5.67 µM
same,TGI,[30],0.312 µM
same,TGI,[31],5.68 µM
same,TGI,[32],5.27 µM
same,TGI,[35],3.81 µM
same,TGI,[57],0.584 µM
same,TGI,[38],7.06 µM
same,TGI,[47],1.75 µM
same,TGI,[53],4.13 µM
